# Patent publication US7713969B2, “Compositions and methods for treatment of cancer” (ArQule, Inc., priority 2005, dated 2010)
# Columns and labels:
# [1] = test system: HT29; test: Cell viability MTS assay; assay type: cell-based, human
# Procedure: (§1) Cell viability was determined by measuring the activity of dehydrogenase enzymes in metabolically active cells using a tetrazolium compound, MTS. The assay was performed as described in Promega Technical Bulletin No. 169 (CellTiter 96 Aqueous Non-Radioactive Cell Proliferation Assay). Thirteen human cancer cell lines were assayed (see, e.g., Table 1). Cells were maintained at 37° C., 5% CO2. Adherent cells were maintained DMEM media (4.5 g/L glucose) supplemented with 15% heat-inactivated FBS, 10 mM L-glutamine, and 10 mM Hepes pH 7.5. Suspension cells were maintained in RPMI 1640 media, supplemented with 10% heat-inactivated FBS and 10 mM Hepes pH 7.5. Briefly, cells were seeded in 96-well plates as set forth in Table 1 and incubated for 16-24 hours. Candidate compounds were serially diluted in DMSO, further diluted in cell culture media, and then added to cells (final DMSO concentration of 0.33%). Cells were incubated in the presence of candidate compound for 72 hours. MTS stock solution (MTS 2 gm/L, PMS […] in PBS) was added to the cells (final concentration MTS […] and PMS 7.67 mg/L) and incubated for 4 hours. SDS was added to a final concentration of 1.4% and absorbance at 490 nm was measured within two hours using a platereader. The IC50 was defined as the concentration of compound that results in a 50% reduction in the number of viable cells as compwered to control wells treated with DMSO only (0.33%) and was calculated using non-linear regression analyswas. IC50 values were given in Table 2 for the compounds listed.
# [2] = test system: MDA-MB-231; test: Cell viability MTS assay; assay type: cell-based, human
# Procedure: as §1
# [3] = test system: NCI-H69; test: Cell viability MTS assay; assay type: cell-based, human
# Procedure: as §1
# [4] = test system: NCI-H446; test: Cell viability MTS assay; assay type: cell-based, human
# Procedure: as §1
# [5] = test system: NCI-H82; test: Cell viability MTS assay; assay type: cell-based, human
# Procedure: as §1
# [6] = test system: MDA-MB-231 cells; test: Colony counting, surviving fraction (Example 78); assay type: cell-based, human; conditions: two days incubation, colonies counted two weeks later; read-out: IC50 (surviving fraction equaled 50)
# Procedure: MDA-MB-231 cells (ATCC# HTB-26), grown in DMEM plus 15% heat inactivated fetal bovine serum plus 10 mM HEPES pH 7.5, were plated in 60 mm plates (2×10^5 cells per plate). After two days candidate compounds in DMSO at various concentrations were diluted in media and added to individual plates such that the final DMSO concentration in the cell culture media was 0.1%. After two days incubation the culture was trypsinized, cells were washed with media, counted using a hemocytometer and 500 cells, including cell bodies, were plated in […] in media. Two weeks later the media was removed and the cell colonies were fixed with methanol for 10 minutes, stained with 1% crystal violet 10 minutes, washed with water and air dried. Cell colonies were visually counted when there were greater then 50 cells present per colony. Plating efficiency was defined as the average number of colonies formed divided by 500. The surviving fraction was defined as the plating efficiency of a candidate compound divided by the plating efficiency of DMSO multiplied by 100. For candidate compound titrations, the IC50 concentration was determined by fitting the equation y=AeBx to the data points and extrapolating the concentration where surviving fraction equaled 50. […]
# [7] = test system: SK-MEL-28; test: Cell viability MTS assay; assay type: cell-based, human; conditions: 72 hours with compound
# Procedure: as §1
# [8] = test system: K562; test: Cell viability MTS assay; assay type: cell-based, human; conditions: 72 hours with compound
# Procedure: as §1
# [9] = test system: HCT-116; test: Cell viability MTS assay; assay type: cell-based, human; conditions: 72 hours with compound
# Procedure: as §1
# [10] = test system: MCF7; test: Cell viability MTS assay; assay type: cell-based, human; conditions: 72 hours with compound
# Procedure: as §1
# [11] = test system: A549; test: Cell viability MTS assay; assay type: cell-based, human; conditions: 72 hours with compound
# Procedure: as §1
# [12] = test system: SKOV-3; test: Cell viability MTS assay; assay type: cell-based, human; conditions: 72 hours with compound
# Procedure: as §1
# [13] = test system: PC-3; test: Cell viability MTS assay; assay type: cell-based, human; conditions: 72 hours with compound
# Procedure: as §1
# [14] = Homo sapiens, HT-29, 72 hours with compound
# [15] = Homo sapiens, MDA-MB-231, 72 hours with compound
# [16] = Homo sapiens, NCI-H446, 72 hours with compound
# [17] = Homo sapiens, NCI-H82, 72 hours with compound
Structure (SMILES),"IC50 [1, 14] [µM]","IC50 [2, 15] [µM]",melting point [°C],IC50 ([3]; 72 hours with compound) [µM],IC50 ([1]; 72 hours with compound) [µM],IC50 ([4]; 72 hours with compound) [µM],IC50 ([5]; 72 hours with compound) [µM],IC50 ([2]; 72 hours with compound) [µM],other results
"O=C1NC(=O)[C@@H](c2cn3c4c(cccc24)CCC3)[C@@H]1c1c[nH]c2ccccc12 [(+)-3(S),4(R)-3-(5,6-dihydro-4H-pyrrolo[3,2,1-ij]quinolin-1-yl)-4(1H-indol-3-yl)pyrrolidine-2,5-dione]",–,–,–,10.5,30.1,8.55,9.83,26.8,IC50 [6]: 4.1 µM; IC50 [7]: 25.5 µM; IC50 [8]: 4.52 µM; IC50 [9]: 14.4 µM; IC50 [10]: > 100 µM; IC50 [11]: 27.9 µM; IC50 [12]: 4.45 µM; IC50 [13]: 18.7 µM
"O=C1NC(=O)[C@@H](c2cn3c4c(cccc24)CCC3)[C@@H]1c1ccc(O)cc1 (racemic) [Example 72, (±)-Trans-3-(5,6-dihydro-4H-pyrrolo[3,2,1-ij]quinolin-1-yl)-4-(4-hydroxyphenyl)pyrrolidine-2,5-dione]",> 100,> 100,105 to 107,–,–,–,–,–,–
"O=C1NC(=O)[C@@H](c2cn3c4c(cccc24)CCC3)[C@@H]1c1cccs1 (racemic) [Example 47, (±)-Trans-3-(5,6-dihydro-4H-pyrrolo[3,2,1-ij]quinolin-1yl)-4-(2-thiophen-2-yl)pyrrolidine-2,5-dione]",–,–,–,4.45,18.3,9.82,7.25,19.9,–
"O=C1NC(=O)[C@@H](c2c[nH]c3ccccc23)[C@H]1c1cn2c3c(cccc13)CCC2 [3(S),4(R)-3-(5,6-dihydro-4H-pyrrolo[3,2,1-ij]quinolin-1-yl)-4(1H-indol-3-yl)pyrrolidine-2,5-dione]",–,–,–,2.07,9.71,1.42,1.77,5.17,–
"COc1cccc([C@@H]2C(=O)NC(=O)[C@H]2c2cn3c4c(cccc24)CCC3)c1 (racemic) [Example 68, (±)-Trans-3-(5,6-dihydro-4H-pyrrolo[3,2,1-ij]quinolin-1-yl)-4-(3-methoxyphenyl)pyrrolidine-2,5-dione]",3.06,14.7,87 to 91,–,–,–,–,–,–
"O=C1NC(=O)[C@@H](c2cn3c4c(cccc24)CCC3)[C@@H]1c1cccc(O)c1 (racemic) [Example 69, (±)-Trans-3-(5,6-dihydro-4H-pyrrolo[3,2,1-ij]quinolin-1-yl)-4-(3-hydroxyphenyl)pyrrolidine-2,5-dione]",55.4,65.9,108 to 110,–,–,–,–,–,–
"O=C1NC(=O)[C@@H](c2cn3c4c(cccc24)CCC3)[C@H]1c1c[nH]c2ccccc12 [3(R),4(S)-3-(5,6-dihydro-4H-pyrrolo[3,2,1-ij]quinolin-1-yl)-4(1H-indol-3-yl)pyrrolidine-2,5-dione]",–,–,–,1.85,5.5,1.27,1.49,3.69,–

# Further lines, with some results ahead:
"IC50 [1, 14] [µM]","IC50 [2, 15] [µM]",melting point [°C],IC50 ([3]; 72 hours with compound) [µM],IC50 ([1]; 72 hours with compound) [µM],IC50 ([4]; 72 hours with compound) [µM],IC50 ([5]; 72 hours with compound) [µM],IC50 ([2]; 72 hours with compound) [µM],Structure (SMILES),other results
35,60.8,99 to 101,–,–,–,–,–,"COc1cccc(C2=C(c3cn4c5c(cccc35)CCC4)C(=O)NC2=O)c1 [Example 65, 3-(5,6-dihydro-4H-pyrrolo[3,2,1-ij]quinolin-1-yl)-4-(3-methoxyphenyl)-1H-pyrrole-2,5-dione]",–
8.51,4.56,–,–,–,–,–,–,"O=C1NC(=O)[C@@H](c2cn3c4c(cccc24)CCC3)[C@@H]1c1ccccc1Cl (racemic) [Example 50, (±)-Trans-3-(5,6-dihydro-4H-pyrrolo[3,2,1-ij]quinolin-1yl)-4-(2-chlorophenyl)-pyrrolidine-2,5-dione]","IC50 ([3]; Homo sapiens, NCI-H69, 72 hours with compound): 5.41 µM; IC50 [4, 16]: 4.22 µM; IC50 [5, 17]: 4.65 µM"
–,67.3,–,–,–,–,–,–,"Cn1cc([C@@H]2C(=O)NC(=O)[C@H]2c2cn3c4c(cccc24)CCC3)c2ccccc21 (racemic) [Example 51, (±)-Trans-3-(5,6-dihydro-4H-pyrrolo[3,2,1-ij]quinolin-1yl)-4-(N-methylindol-3-yl)pyrrolidine-2,5-dione]","IC50 [4, 16]: 65.7 µM; IC50 [5, 17]: 37.7 µM"
> 100,> 100,262 to 265,–,–,–,–,–,"O=C1NC(=O)C(c2cn3c4c(cccc24)CCC3)=C1c1ccc(OCc2ccccc2)cc1 [Example 66, 3-[4-(benzyloxy)phenyl]-4-(5,6-dihydro-4H-pyrrolo[3,2,1-ij]quinolin-1-yl)-1H-pyrrole-2,5-dione]",–
